Activity calls are given as the source filed them. The calls are words filed in the database; no cut-off is given here.
Columns and labels:
[1] = Antioxidant activity in rat liver microsome membrane assessed as inhibition of lipid peroxidation after 45 mins by TBARS-based spectrophotometric assay; assay type: functional, microsomes
[2] = tested on: Radical scavenging activity; assay: Antioxidant activity assessed as DPPH radical scavenging activity after 30 mins; assay type: functional
[3] = biological target: T1, Squalene synthase (Rattus norvegicus) (UniProt Q02769); assay: (§1) Inhibition of squalene synthase in rat liver microsomes assessed as decrease in conversion of [3H]FPP to squalene
T1 sequence (whole entry): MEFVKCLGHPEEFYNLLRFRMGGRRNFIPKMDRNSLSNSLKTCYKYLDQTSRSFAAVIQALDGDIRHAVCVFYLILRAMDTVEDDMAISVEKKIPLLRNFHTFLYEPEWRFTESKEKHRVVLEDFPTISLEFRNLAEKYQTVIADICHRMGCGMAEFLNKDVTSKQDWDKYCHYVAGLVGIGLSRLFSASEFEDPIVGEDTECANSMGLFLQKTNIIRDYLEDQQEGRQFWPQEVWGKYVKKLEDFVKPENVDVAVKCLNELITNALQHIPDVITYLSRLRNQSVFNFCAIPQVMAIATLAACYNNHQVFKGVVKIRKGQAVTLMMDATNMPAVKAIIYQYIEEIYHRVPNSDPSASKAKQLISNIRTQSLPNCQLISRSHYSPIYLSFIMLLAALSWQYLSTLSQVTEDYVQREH

Squalene synthase = biological target: T2, Squalene synthase (Rattus norvegicus, UniProt Q02769); assay: as §1
T2 sequence (Q02769 whole entry): T1 sequence (whole entry)

Glycine max = assay: Inhibition of soybean lipoxygenase using sodium linoleate as substrate up to 100 uM measured for 6 mins
Rattus norvegicus [4] = assay: In vivo antidyslipidemic activity against Triton WR 1339-induced hyperlipidemic Wistar rat model assessed as decrease in total cholesterol level in plasma at 56 umol/kg, ip administered as single dose 1 hr after Triton WR 1339 challenge measured after 24 hrs; assay type: functional
Rattus norvegicus [5] = assay: In vivo antidyslipidemic activity against Triton WR 1339-induced hyperlipidemic Wistar rat model assessed as decrease in LDL-cholesterol level in plasma at 56 umol/kg, ip administered as single dose 1 hr after Triton WR 1339 challenge measured after 24 hrs; assay type: functional
Rattus norvegicus [6] = assay: In vivo antidyslipidemic activity against Triton WR 1339-induced hyperlipidemic Wistar rat model assessed as decrease in triglyceride level in plasma at 56 umol/kg, ip administered as single dose 1 hr after Triton WR 1339 challenge measured after 24 hrs; assay type: functional
[7] = biological target: T3, Prostaglandin G/H synthase 1 (Bos taurus) (UniProt O62664); assay: Inhibition of bovine COX-1 assessed as PGF2-alpha formation using arachidonic acid as substrate at 20 uM by enzyme immunoassay
T3 sequence (whole entry): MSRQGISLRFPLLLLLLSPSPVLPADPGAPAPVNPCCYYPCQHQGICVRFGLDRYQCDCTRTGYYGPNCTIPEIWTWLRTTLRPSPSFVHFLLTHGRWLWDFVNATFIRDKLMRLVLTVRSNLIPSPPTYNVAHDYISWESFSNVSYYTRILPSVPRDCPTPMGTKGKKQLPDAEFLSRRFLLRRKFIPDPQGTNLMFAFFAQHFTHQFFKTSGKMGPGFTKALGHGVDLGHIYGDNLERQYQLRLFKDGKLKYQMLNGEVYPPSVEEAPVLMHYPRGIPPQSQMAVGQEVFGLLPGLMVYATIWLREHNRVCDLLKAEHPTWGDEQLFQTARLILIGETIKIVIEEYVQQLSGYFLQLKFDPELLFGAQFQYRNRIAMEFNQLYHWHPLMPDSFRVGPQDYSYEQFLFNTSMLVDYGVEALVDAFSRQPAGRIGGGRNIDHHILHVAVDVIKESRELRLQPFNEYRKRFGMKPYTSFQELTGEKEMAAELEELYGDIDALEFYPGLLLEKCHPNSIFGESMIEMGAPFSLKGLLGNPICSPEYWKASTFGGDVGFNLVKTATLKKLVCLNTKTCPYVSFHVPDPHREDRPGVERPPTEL

[8] = Inhibition of soybean lipoxygenase using sodium linoleate as substrate measured for 6 mins
Mus musculus = assay: In vivo antiinflammatory activity in mouse assessed as decrease in carrageenan-induced paw edema at 0.30 mmol/kg, ip administered immediately after carrageenan injection measured after 3.5 hrs; assay type: functional
[9] = tested on: Radical scavenging activity; assay: Antioxidant activity assessed as DPPH radical scavenging activity up to 50 uM measured within 15 mins; assay type: functional
Homo sapiens [10] = organism: Homo sapiens; assay: Antioxidant activity against CuSO4-induced human LDL oxidation assessed as prolongation of lag time by spectrophotometric analysis; assay type: functional
Homo sapiens [11] = organism: Homo sapiens; assay: Antioxidant activity against CuSO4-induced human LDL oxidation assessed as lag time at 0.25 uM by spectrophotometric analysis (reference value: 113 mins); assay type: functional
Homo sapiens [12] = organism: Homo sapiens; assay: Antioxidant activity against CuSO4-induced human LDL oxidation assessed as lag time at 0.50 uM by spectrophotometric analysis (reference value: 113 mins); assay type: functional
Homo sapiens [13] = organism: Homo sapiens; assay: Antioxidant activity against CuSO4-induced human LDL oxidation assessed as inhibition of rate of conjugate diene formation at 1 uM by spectrophotometric analysis; assay type: functional
Homo sapiens [14] = organism: Homo sapiens; assay: Antioxidant activity against CuSO4-induced human LDL oxidation assessed as delta-lag time at 0.25 uM by spectrophotometric analysis; assay type: functional
Homo sapiens [15] = organism: Homo sapiens; assay: Antioxidant activity against CuSO4-induced human LDL oxidation assessed as delta-lag time at 0.50 uM by spectrophotometric analysis; assay type: functional
Homo sapiens [16] = organism: Homo sapiens; assay: Antioxidant activity against CuSO4-induced human LDL oxidation assessed as increase in lag time at 0.25 uM by spectrophotometric analysis; assay type: functional
Homo sapiens [17] = organism: Homo sapiens; assay: Antioxidant activity against CuSO4-induced human LDL oxidation assessed as increase in lag time at 0.50 uM by spectrophotometric analysis; assay type: functional
Homo sapiens [18] = organism: Homo sapiens; assay: Antioxidant activity against CuSO4-induced human LDL oxidation assessed as increase in lag time at 1 uM by spectrophotometric analysis; assay type: functional
Homo sapiens [19] = organism: Homo sapiens; assay: Antioxidant activity against CuSO4-induced human LDL oxidation assessed as inhibition of rate of conjugate diene formation at 0.25 uM by spectrophotometric analysis; assay type: functional
Homo sapiens [20] = organism: Homo sapiens; assay: Antioxidant activity against CuSO4-induced human LDL oxidation assessed as inhibition of rate of conjugate diene formation at 0.50 uM by spectrophotometric analysis; assay type: functional

Row | SMILES | IC50 [1] | IC50 [2] | inhibition [3] | IC50 (Squalene synthase) | inhibition (Glycine max) | inhibition [7] | inhibition in vivo at 56 µmol/kg (Rattus norvegicus [4]) | inhibition in vivo at 56 µmol/kg (Rattus norvegicus [5]) | inhibition in vivo at 56 µmol/kg (Rattus norvegicus [6]) | other results
1 | CN1c2ccccc2Sc2ccc(C3(O)CN(C)C4CCCCC4O3)cc21 (racemic) | 57 µM | > 400 µM | Dose-dependent effect | 4.7 µM | inactive | – | 26% | 34% | 27% | –
2 | CC(=O)N1c2ccccc2Sc2ccc(C3(O)CN(C)CCO3)cc21 (racemic) | 36 µM | > 400 µM | Dose-dependent effect | 25.3 µM | inactive | – | 63% | 48% | 76% | –
3 | COc1ccc2c(c1)c(CC(=O)O)c(C)n2C(=O)c1ccc(Cl)cc1 [INDOMETHACIN] | – | – | – | – | – | 100% | – | – | – | inhibition in vivo at 300 µmol/kg (Mus musculus): 54%
4 | O=c1c(O)c(-c2ccc(O)c(O)c2)oc2cc(O)cc(O)c12 [QUERCETIN] | 20 µM | 96 µM | – | – | – | – | – | – | – | –
5 | OC1(c2ccc3c(c2)Nc2ccccc2S3)CN2CCCCC2CO1 (racemic) | 0.55 µM | 184 µM | Dose-dependent effect | 2.7 µM | inactive | 55% | 36% | 58% | 63% | Activity [9]: Active; Activity (Homo sapiens [10]): Dose-dependent effect; TIME (Homo sapiens [11]): 2.53 h; TIME (Homo sapiens [12]): 3.38 h; inhibition (Homo sapiens [13]): 100%; TIME (Homo sapiens [14]): 0.65 h; TIME (Homo sapiens [15]): 1.5 h; Activity (Homo sapiens [16]): 35%; Activity (Homo sapiens [17]): 80%; Activity (Homo sapiens [18]): 100%; inhibition (Homo sapiens [19]): 0%; inhibition (Homo sapiens [20]): 20%
6 | CCC(C)(C)C(=O)O[C@H]1C[C@@H](C)C=C2C=C[C@H](C)[C@H](CC[C@@H]3C[C@@H](O)CC(=O)O3)[C@H]21 [SIMVASTATIN] | – | – | – | – | – | – | 75% | 70% | 0% | –
7 | CC(=O)N1c2ccccc2Sc2ccc(C3(O)CN(C)C4CCCCC4O3)cc21 (racemic) | 14 µM | > 400 µM | Dose-dependent effect | 1.6 µM | inactive | – | – | – | – | –

Now from value to compound, other results behind:

Row | IC50 [1] | IC50 [2] | inhibition [3] | IC50 (Squalene synthase) | inhibition (Glycine max) | inhibition [7] | SMILES | inhibition in vivo at 56 µmol/kg (Rattus norvegicus [4]) | inhibition in vivo at 56 µmol/kg (Rattus norvegicus [5]) | inhibition in vivo at 56 µmol/kg (Rattus norvegicus [6]) | other results
8 | – | – | – | – | – | 30% | COc1ccc2cc([C@H](C)C(=O)O)ccc2c1 [NAPROXEN] | – | – | – | IC50 [8]: 24 µM; inhibition in vivo at 300 µmol/kg (Mus musculus): 51%
9 | 0.33 µM | 150 µM | – | > 50 µM | – | – | CC1=CSC(O)(c2ccc3c(c2)Nc2ccccc2S3)CN1C=O (configuration not stated) | – | – | – | Activity [9]: Active
10 | 9 µM | 119 µM | – | – | – | 36% | CN1CC(O)(c2ccc(-c3ccccc3)cc2)Oc2ccccc21 (configuration not stated) | 62% | 74% | 73% | –
11 | 1.6 µM | 337 µM | Dose-dependent effect | 3.3 µM | – | – | CN1CC(O)(c2ccc3c(c2)Nc2ccccc2S3)Oc2ccccc21 (configuration not stated) | – | – | – | Activity [9]: Active
12 | > 1000 µM | 234 µM | – | – | – | – | CC(C)(Sc1cc(C(C)(C)C)c(O)c(C(C)(C)C)c1)Sc1cc(C(C)(C)C)c(O)c(C(C)(C)C)c1 [PROBUCOL] | 18% | 18% | 11% | –
13 | 12 µM | > 400 µM | Dose-dependent effect | 16.4 µM | inactive | – | CC(=O)N1c2ccccc2Sc2ccc(C3(O)CN4CCCCC4CO3)cc21 (racemic) | – | – | – | –
14 | 450 µM | > 400 µM | – | – | – | – | CN1CC(O)(c2ccc(-c3ccccc3)cc2)OC2CCCCC21 (configuration not stated) | 54% | 51% | 49% | –
15 | 83 µM | 271 µM | – | – | – | 90% | CN1CC(O)(c2ccc(-c3ccccc3)cc2)Sc2ccccc21 (configuration not stated) | 58% | 26% | 38% | –
16 | 70.2 µM | > 400 µM | Dose-dependent effect | 3.6 µM | inactive | 17% | CN1CCOC(O)(c2ccc3c(c2)N(C)c2ccccc2S3)C1 (racemic) | – | – | – | –
17 | 68 µM | > 400 µM | Dose-dependent effect | 2.3 µM | inactive | – | CN1c2ccccc2Sc2ccc(C3(O)CN4CCCCC4CO3)cc21 (racemic) | 55% | 26% | 71% | –
